# Results: patent EP1232756A1, “DRUGS, DRINKS OR FOODS” (Takara Shuzo Co, Ltd., priority 1999, dated 2001)
# Tests used:
# female SD rat [1] = assay: Anti-estrogenic activity of n-octyl gallate against NP, rat uterine weight (Example 10); type: in vivo; conditions: for Uterine weight: 1.5 hours before NP, 3 days; for Ratio: vs control (100%)
# Protocol: (§1) A 16-days old female SD rat (Japan SLC) was purchased together with its mother, weaned at 19 days of age, and subjected to experiments from the next day. n-Octyl gallate (Tokyo Kasei Kogyo) was dissolved in a small volume of ethanol. Peanut oil was added thereto to result in a final ethanol concentration of 5%. The resulting mixture was orally administered to the 20-days old female SD rat for three successive days. The uterine removed on the day after the last administration day was weighed. Peanut oil containing 5% ethanol was used for a vehicle administration group. NP weighed such that it would be administered at 50 mg/kg was diluted by adding peanut oil. It was orally administered 1.5 hours after the administration of n-octyl gallate.
# female SD rat [2] = assay: Anti-estrogenic activity of n-octyl gallate against BisA, rat uterine weight (Example 9); type: in vivo; conditions: for Uterine weight: 1.5 hours before BisA, 3 days; for Ratio: vs control (100%)
# Protocol: as §1, with “BisA” for “NP weighed such that it would be administered at 50 mg/kg”, “dissolved in a small volume of ethanol. Peanut oil was added thereto to result in a final ethanol concentration of 5%.” for “diluted by adding peanut oil.”
# [3] = molecular target: T1, ER(α) (estrogen receptor α) (Homo sapiens, UniProt P03372); assay: Binding to estrogen receptor, fluorescence polarization competition (FP Screen-for-Competitors kit, ER-α) (Example 7); conditions: concentration inhibiting 50% of the binding of the ES1-ER(α) complex by competing with ES1; 1 hour at room temperature
# T1 construct: purchased PanVera V2577
# T1 sequence (P03372 1-595): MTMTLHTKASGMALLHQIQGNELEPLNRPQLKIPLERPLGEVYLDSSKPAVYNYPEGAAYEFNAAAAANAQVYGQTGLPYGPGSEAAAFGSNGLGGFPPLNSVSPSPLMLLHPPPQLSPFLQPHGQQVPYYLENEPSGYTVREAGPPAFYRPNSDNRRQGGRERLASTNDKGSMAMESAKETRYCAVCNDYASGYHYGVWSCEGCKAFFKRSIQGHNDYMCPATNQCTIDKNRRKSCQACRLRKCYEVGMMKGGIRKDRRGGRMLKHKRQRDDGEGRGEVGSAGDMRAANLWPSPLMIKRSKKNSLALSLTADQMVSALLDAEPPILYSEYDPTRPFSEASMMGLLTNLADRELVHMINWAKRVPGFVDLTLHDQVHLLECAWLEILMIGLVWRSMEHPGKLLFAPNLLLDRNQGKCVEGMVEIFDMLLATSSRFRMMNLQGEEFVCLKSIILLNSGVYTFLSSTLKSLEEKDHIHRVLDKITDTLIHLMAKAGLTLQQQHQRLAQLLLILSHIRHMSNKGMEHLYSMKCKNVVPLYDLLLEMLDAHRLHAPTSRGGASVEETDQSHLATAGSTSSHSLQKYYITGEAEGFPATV
# Protocol: Bindings of various gallic acid derivatives to estrogen receptor were tested using FP Screen-for-Competitors kit, ER-α, high sensitivity kit (V2577: PanVera). The tests were carried out basically according to the procedure as described in the manual attached to the kit. One of various gallic acid derivatives (n-octyl gallate (gallic acid n-octyl ester), n-dodecyl gallate (gallic acid n-dodecyl ester) and n-cetyl gallate (gallic acid n-hexadecyl ester)) was dissolved in DMSO and serially diluted to prepare diluted samples (0.5 M - 0.0000000005 M). 49 µL of Screening buffer attached to the kit was added to 1 µL of one of the diluted samples and stirred thoroughly. 50 µL of 10 nM-15 nM:ES1-ER(α) complex (a complex of ES1 (a fluorescent ligand that binds to ER) and ER(α) (estrogen receptor α)) attached to the kit was added thereto, resulting in the total volume of 100 µL. After allowing to stand for 1 hour at room temperature, fluorescence polarization was measured at an excitation wavelength of 360 nm and an emission wavelength of 535 nm using Full-Range BEACON 2000 (PanVera).
# [4] = tested on: human breast cancer-derived MCF-7 cells; assay: E-SCREEN assay, proliferation of cultured cells, MTT method (Example 8); type: cell-based
# Protocol: A test for proliferation of cultured cells was carried out according to a method called the E-SCREEN assay as described in Ana M. Soto et al. (Environ. Health Perspect. 103:113-122(1995)). Briefly, 4.0 x 10^3 of human breast cancer-derived MCF-7 cells in a volume of 100 µL were seeded into each well of a 96-well plate. The plate was incubated overnight. BisA or a combination of BisA and n-octyl gallate was then added thereto. A well without the addition was used as a control. The cells were further cultured for 4 days in a medium, Dulbecco's modified Eagle medium without Phenol Red supplemented with 5% FCS treated with activated carbon-dextran. The MTT method was used to measured the cell numbers.
# female SD rat [5] = assay: Anti-estrogenic activity of n-octyl gallate or n-cetyl gallate against subcutaneously administered BisA, rat uterine weight (Example 11); type: in vivo; conditions: for Uterine weight: 3 days; for Ratio: vs control (100%)
# Protocol: A 17-days old female SD rat (Japan SLC) was purchased together with its mother, weaned at 20 days of age, and subjected to experiments from the next day. n-Octyl gallate or n-cetyl gallate (both from Tokyo Kasei Kogyo) was dissolved in a small volume of ethanol. Peanut oil was added thereto to result in a final ethanol concentration of 5%. The resulting mixture was orally administered to the 21-days old female SD rat for three successive days. The uterine removed on the day after the last administration day was weighed. Peanut oil containing 5% ethanol was used for a vehicle administration group. BisA was dissolved in a small volume of ethanol. Peanut oil was added thereto to result in a final ethanol concentration of 5%. The mixture was subcutaneously administered.
# [6] = NP 50 mg/kg oral + n-octyl gallate 25 mg/kg oral
# [7] = NP 50 mg/kg oral + n-octyl gallate 126 mg/kg oral
# [8] = BisA 40 mg/kg oral + n-octyl gallate 25 mg/kg oral
# [9] = BisA 40 mg/kg oral + n-octyl gallate 126 mg/kg oral
# [10] = BisA 40 mg/kg subcutaneous + n-octyl gallate 5 mg/kg oral
# [11] = BisA 40 mg/kg subcutaneous + n-octyl gallate 25 mg/kg oral
structure (smiles),measurement,setting,value
"CCCCCCCCOC(=O)c1cc(O)c(O)c(O)c1 [n-octyl gallate, gallic acid n-octyl ester]",Uterine weight,female SD rat [1]; [6],40.4 ± 3.6 mg
same,Uterine weight,female SD rat [1]; [7],38.6 ± 2.4 mg
same,Ratio,female SD rat [1]; [6],122%
same,Ratio,female SD rat [1]; [7],117%
same,Uterine weight,female SD rat [2]; [8],32.7 ± 3.5 mg
same,Uterine weight,female SD rat [2]; [9],32.9 ± 3.6 mg
same,Ratio,female SD rat [2]; [8],108%
same,Ratio,female SD rat [2]; [9],108%
same,IC50,[3],3.38 µM
same,Relative rate of increase in cell number,"[4]; BisA + n-octyl gallate, MCF-7, 4 days culture, control = 100",91%
same,suppression of the proliferation of the cells (in words),"[4]; BisA and n-octyl gallate added, MCF-7",suppressed to a degree almost the same as that of the control
same,Uterine weight,female SD rat [5]; [10],48.3 ± 1.5 mg
same,Uterine weight,female SD rat [5]; [11],42.1 ± 1.9 mg
same,Ratio,female SD rat [5]; [10],117%
same,Ratio,female SD rat [5]; [11],102%
